Structures can show the parent of a compound that is named as a salt.
Experiment: Change in intraocular pressure (IOP) after administration of compound
Type: in vivo

| SMILES | Change in IOP (Maximum mmHg change in intraocular pressure) (Concentration 0.05%) | Change in IOP (Maximum mmHg change in intraocular pressure) (Concentration 0.5%) |
| --- | --- | --- |
| CCOc1cccc(C2CN3CCC2CC3)n1 (stereo not shown) [Description A, 3-[2-(6-Ethoxypyridin)yl]-1-azabicyclo[2.2.2]octane Hydrogen Oxalate] | -3.0 mmHg | – |
| COc1cccc(C2CN3CCC2C3)n1 (stereo not drawn) [Description B, Endo-3-[2-(6-methoxypyridin)yl]-1-azabicyclo[2.2.1]heptane Hydrogen Oxalate] | -4.5 mmHg | – |
| COc1cccc(C2CN3CCC2CC3)n1 (stereo not shown) [Description C, 3-[2-6-Methoxypyridin)yl]-1-azabicyclo[2.2.2]octane Dihydrochloride] | -3.0 mmHg | – |
| Clc1cccc(C2CN3CCC2CC3)n1 (stereo not shown) [Description D, 3-[2-(6-Chloropyridin)yl]-1-azabicyclo[2.2.2]octane Hydrogen Oxalate] | – | -3.0 mmHg |

Reference: EP0492902A1, “Substituted pyridine derivatives for use in the treatment of glaucoma” (MERCK SHARP & DOHME LTD., priority 1990, dated 1992)
